The source of these data is ChEMBL document CHEMBL1165868, “Synthesis and antimicrobial activity of cholic acid hydrazone analogues” (2010).

Format in all cases: functional
One assay concerns Escherichia coli. The assay can be described thus: Antimicrobial activity against Escherichia coli after 24 hrs.
For another assay, the system named is Pseudomonas aeruginosa. Put plainly: Antimicrobial activity against Pseudomonas aeruginosa after 24 hrs.
The test system of a further assay is Klebsiella aerogenes. Put plainly: Antimicrobial activity against Enterobacter aerogenes after 24 hrs.
In the next assay the test system is Staphylococcus aureus. Put plainly: Antimicrobial activity against Staphylococcus aureus after 24 hrs.
The test system of another assay is Enterococcus faecalis. The assay can be described thus: Antimicrobial activity against Enterococcus faecalis after 24 hrs.
In the next assay the test system is Priestia megaterium. Put plainly: Antimicrobial activity against Bacillus megaterium after 24 hrs.

A word on the MIC: it is the lowest concentration found to suppress growth.

Each structure is given as a SMILES string. Values after ≈ are worked out from the molar mass of the structure shown. Active and inactive are the calls of the source. The calls are words filed in the database; no cut-off is given here.

`C=CC1=C(C(=O)O)N2C(=O)[C@@H](NC(=O)/C(=N\OCC(=O)O)c3csc(N)n3)[C@H]2SC1` [CEFIXIME]: the MIC with Escherichia coli amounted to 1.96 µg/mL (≈ 4.32 µM); in the assay with Pseudomonas aeruginosa, 19.5 µg/mL (≈ 43.1 µM); with Klebsiella aerogenes, 31.2 µg/mL (≈ 68.9 µM); with Staphylococcus aureus, 31.2 µg/mL (≈ 68.9 µM); against Enterococcus faecalis, 31.2 µg/mL (≈ 68.9 µM). Also, the MIC result with Priestia megaterium is “inactive”.

On to `C[C@H](CCC(=O)N/N=C/c1ccccc1O)[C@H]1CC[C@H]2[C@@H]3[C@H](O)C[C@@H]4C[C@H](O)CC[C@]4(C)[C@H]3C[C@H](O)[C@]12C`, for which the MIC entry in the assay with Escherichia coli, in the assay with Pseudomonas aeruginosa and in the assay with Klebsiella aerogenes was “inactive” each time. In addition, the minimal inhibitory concentration (MIC) in the assay with Staphylococcus aureus stood at 31.2 µg/mL (≈ 59.3 µM); with Enterococcus faecalis it was 7.82 µg/mL (≈ 14.8 µM); in the assay with Priestia megaterium, 31.2 µg/mL (≈ 59.3 µM).
